Experimental data published in patent publication US20150313913A1, “POSITIVE ALLOSTERIC MODULATORS OF THE GABA-A RECEPTOR IN THE TREATMENT OF AUTISM” (UNIVERSITY OF WASHINGTON THROUGH ITS CENTER FOR …, priority 2013, published 2015).
“Also recorded” adds a separate entry of the source.

What was measured:
[1] = system: C57BL/6J mice; assay: Three-chamber social interaction test; assay type: in vivo; conditions: for social interaction preference, Pre/CLZ/Post protocol: low dose (0.05 mg/kg), 0.05 mg/kg
From the text: The mouse was allowed to freely explore each chamber.

[2] = system: Scn1a+/− mice; assay: Three-chamber social preference test; assay type: in vivo
From the text: The mouse was allowed to freely explore each chamber. […] The recorded video file was further analyzed by off-line video tracking software (ETHOVISION™ XT 7.0). […] All data shown are means±s.e.m. and analyzed using two-way ANOVA with Bonferroni's post hoc analysis and one-way ANOVA with Tukey's post hoc analysis.
Oral administration is specifically contemplated for the methods described herein, and is well known for both benzodiazepines and non-BDZ GABA-A enhancers as described herein.
(§1) The test was performed as described previously (Han et al., 2012) with minor modifications. The threechamber apparatus is a non-transparent Plexiglas box (30×60 cm) with two transparent partitions that make left, center, and right chambers (30×20 cm). In the first 10-min session, a test mouse was placed in the center of the empty three-chamber unit to habituate the test mouse. The mouse was allowed to freely explore each chamber. In the second 10-min session, an age- and gender-matched same strain mouse that had never been exposed to the test mouse, was placed in one of the two wire cages. The empty wire cage as an inanimate object cue was placed on the other side. Then, the test mouse was placed again in the center, and allowed to freely explore the chamber for 10 min. Time spent in each chamber, and time spent within a 5 cm radius proximal to each wire cage, as a close interaction were measured by the videotracking software (EthoVision XT 8.5, Noldus Technology). All data shown are means±s.e.m. and analyzed using two-way ANOVA with Bonferroni's post hoc analysis and one-way ANOVA with Tukey's post hoc analysis.
(§2) L-838,417, and DMCM (Sigma), dissolved in 100% DMSO (sterile, Sigma) was diluted in PBS (the final concentration of DMSO was ranged from 0.005% to 0.1%). Drugs were administered by an intraperitoneal injection in a volume of […] 30 min before the behavioral tests.

[3] = system: mouse genetic models of human Dravet syndrome and idiopathic autism; assay: Summary: low-dose treatment of mouse models of autism; assay type: in vivo, mice; conditions: low doses that do not induce sedative or anxiolytic effects
From the text: The present disclosure describes methods effective in the rescue or amelioration of autism-like behavior, cognitive deficit, and context-dependent spatial memory.
In particular embodiments, these methods comprise the administration of low doses of a benzodiazepine to a human or other mammalian subject in order to rescue autism-like behavior, cognitive deficit, and context-dependent spatial memory. […] At such low doses, the administration of benzodiazepines, such as CLZ, to mammalian subjects will result in improvement of autism-like behavior, cognitive deficit, and context-dependent spatial learning and memory with much lower levels of sedation compared to mammalian subjects who receive typical higher doses of CLZ or other benzodiazepines that are used for treatment of anxiety, insomnia, or seizure.
The present disclosure is also directed to methods of rescuing or ameliorating indicia of Autism Spectrum disorders, autism-like behavior, cognitive deficit, and context-dependent spatial learning and memory in Dravet syndrome or idiopathic autism with α-2,3-specific GABA-A receptor positive allosteric modifiers. Such α-2,3-subunit selective GABA-A receptor positive allosteric modifiers include L838,417.
Therapeutic approaches to treat autistic traits in animal studies or in clinical trials have primarily focused on reducing excitatory neurotransmission in glutamatergic synapses to rebalance E/I ratio in autistic brain (Michalon et al., 2012; Yang et al., 2012). However, autistic-like behaviors in ASD mouse models are only partially reversed by drugs that inhibit excitatory neurotransmission, and these drugs also have unwanted side effects on wild-type mice (Henderson et al., 2012; Michalon et al., 2012; Yang et al., 2012). To overcome these drawbacks, the inventors focused on the opposing side, the GABAergic inhibitory transmission in autistic brain. Their results highlight the potential for therapy of autistic-like behaviors and cognitive deficit in ASD by low-dose treatment with subunit-selective benzodiazepines and other positive allosteric modulators of GABA-A receptors. […] It is possible that the biphasic dose-response relationship of the positive allosteric modulators reflects their actions on receptors containing α2,3 subunits at low doses and on receptors containing α1 subunits at higher doses.

[4] = system: BTBR mice; assay: Three-chamber social interaction test; conditions: for social interaction deficit: 0.05 mg/kg (low dose) 30 min before test; for effect on social interaction at doses above the maximally effective dose: higher doses; for dose of maximal effect on social interaction: i.p., 30 min before test; for social interaction (time with stranger mouse, close interaction), dose series: single i.p. injection 30 min before test, low/increasing doses
Method: In the three-chamber test, a test mouse is placed in the center chamber, and the preference of the test mouse for interaction with an inanimate object (a small empty cage) in the left chamber vs. a stranger mouse in an identical cage in the right chamber using a digital camera and quantitative video-tracking analysis.
as §1, §2

[5] = system: C57BL/6J mice; assay: Context-dependent fear conditioning test; assay type: in vivo
From the text: The contextual fear-conditioning chamber was a square arena (25×25 cm) with clear PLEXIGLAS™ walls and a metal grid floor connected to a circuit board that delivered shocks to the metal grid (COULBOURN INSTRUMENTS™). An analog camera was attached on top of the chamber. The camera and the circuit board were connected to a personal computer, and its software (FREEZE FRAME™ 2.0, ACTIMETRICS™) controlled the circuit and recorded the data. The chamber was cleaned with 70% ethanol and wiped with paper towels before each session. In the habituation session, a test mouse was placed in the chamber and allowed to explore for 2 min^66-69. Immediately after habituation, the test mouse received a single mild foot shock (2 s, 0.5 mA). After staying in the chamber one more min, the mouse was removed from the chamber. For the 30-min short-term memory test, the mouse was returned to the context 30 min after the end of the training session. For 24-hr long-term memory test, the mouse was returned to the context 24 hr after the training session. The movement of mice was also recorded by a USB webcam (LIFECAM™ HD-6000, MICROSOFT™) and PC-based video capture software (WINAVI™ Video Capture, ZJ MEDIA DIGITAL TECHNOLOGY™) for 2 min. The recorded video file was further analyzed by off-line video tracking software (ETHOVISION™ XT 7.0, NOLDUS TECHNOLOGY™). The freezing scores were calculated by dividing the test session into 1 min bouts and averaging together all 2 min for each animal. All data shown.
Freezing behavior is defined as the period during which the velocity of the test mouse is less than 1.75 cm/s, and non-freezing behavior is defined as the period during which the velocity of the mouse is greater than 2 cm/s.

[6] = system: GABA-A receptor; conditions: cited from earlier work

Question: With `Cn1ncnc1COc1nn2c(-c3cc(F)ccc3F)nnc2cc1C(C)(C)C` [L-838,417] as the compound, how does the “social behavior, dose series” value ([1]; L-838,417 / zolpidem (FIGS. 45I, 45J)) read?
Answer: not changed; also recorded: did not change

Question: What about the “social interactions in three-chamber test” value ([2]; low doses, narrow dose range (FIGS. 41N, 41O)) of the same compound?
Answer: improves social interactions

Question: And the “autistic-like behaviors and cognitive deficit in BTBR mice (summary)” value [3]?
Answer: improved

Question: And the social interaction deficit [4]?
Answer: rescued

Question: What about the “social behavior (close interaction)” value ([4]; 0.5 mg/kg) of the same compound?
Answer: disappeared

Question: And the “dose at low point of time in the chamber with the inanimate object” value ([4]; biphasic dose-response)?
Answer: 0.05 mg/kg

Question: And the “effect on social interaction at doses above the maximally effective dose” value [4]?
Answer: lost when the dose increased

Question: And the “effect on social interaction at doses above the maximally effective dose” value ([4]; listed as L838,417)?
Answer: reduced response

Question: What about the “dose of maximal effect on social interaction” value [4] of the same compound?
Answer: 0.05 mg/kg

Question: What about the “time of interaction with the inanimate object” value ([4]; increasing doses) of the same compound?
Answer: decrease

Question: And the “total movement during the three-chamber test at high dose” value ([4]; mouse, in vivo)?
Answer: tended to increase

Question: And the “social interaction (time with stranger mouse, close interaction), dose series” value (“social interaction … dose series” for short) [4]?
Answer: increased

Question: What about the “social interaction … dose series” value ([4]; listed as L818,417) of the same compound?
Answer: progressively increase

Question: What about the “memory of the spatial context” value ([5]; 0.05 mg/kg L838,417) of the same compound?
Answer: no effect

Question: What about the “Effect at GABA receptor” value ([6]; Table 2, exemplary SS-PAMs) of the same compound?
Answer: Partial agonist Selective for α2, α3 (and possibly α5) subunits

Question: Which “time of interaction with stranger mouse vs. novel object” value ([1]; any of the test doses (FIG. 39C)) does the source give for `O=C1CN=C(c2ccccc2Cl)c2cc([N+](=O)[O-])ccc2N1` [Clonazepam] here?
Answer: unaffected

Question: What about the “social interactions / close interaction” value ([1]; clonazepam single injection, 0-0.1 mg/kg) of the same compound?
Answer: not altered; also recorded: no effect

Question: And the “social interaction preference, Pre/CLZ/Post protocol” value [1]?
Answer: not changed; also recorded: None of these treatments had any significant effect

Question: What about the “social interaction preference, Pre/CLZ/Post protocol” value ([1]; listed as CLZ) of the same compound?
Answer: does not significantly alter

Question: What about the “social interaction, 3-chamber social preference test” value ([2]; single i.p. 0.0625 mg/kg 30 min before test, listed as CLZ, 0.0625 mg/kg) of the same compound?
Answer: completely rescued; also recorded: completely restored; also recorded: completely recovered

Question: What about the “autistic-like behaviors and cognitive deficit in BTBR mice (summary)” value [3] of the same compound?
Answer: improved

Question: What about the social interaction deficit [4] of the same compound?
Answer: reversibly rescued; also recorded: improved

Question: What about the social interaction deficit ([4]; listed as CLZ) of the same compound?
Answer: recover their preference

Question: And the “social interactions on Day 1 of repeated treatment” value ([4]; 0.05 mg/kg i.p. daily)?
Answer: significantly increased

Question: What about the “social interactions after 14 days of repeated treatment” value ([4]; 0.05 mg/kg i.p. daily for 14 days) of the same compound?
Answer: fully retained and even increased

Question: What about the “sedation / total distance moved during the three-chamber test” value ([4]; dose range up to 0.5 mg/kg (clonazepam: test doses)) of the same compound?
Answer: did not cause sedation; also recorded: no sedation

Question: And the “improvement of social deficit: time of interaction with stranger mouse vs. novel object” value ([4]; dose series (FIG. 39D))?
Answer: strikingly dose-dependent

Question: And the “increase of time spent in the chamber containing the stranger mouse” value ([4]; doses from 0.00625 mg/kg to 0.05 mg/kg i.p.)?
Answer: approximately 2.5 fold

Question: What about the “effect on social interaction at doses above the maximally effective dose” value [4] of the same compound?
Answer: not observed; also recorded: lost at higher doses

Question: And the “dose of maximal effect on social interaction” value [4]?
Answer: 0.05 mg/kg

Question: What about the “tolerance to rescue of social interaction behavior” value ([4]; repeated 0.05 mg/kg, 14 days) of the same compound?
Answer: does not elicit tolerance

Question: And the “social interaction … dose series” value [4]?
Answer: rescued; also recorded: increased

Question: What about the “cognitive changes in fear conditioning” value ([5]; clonazepam, any dose (0-0.1 mg/kg)) of the same compound?
Answer: no cognitive changes

Question: What about the “Effect at GABA-A receptor” value ([6]; Table 1, exemplary benzodiazepines) of the same compound?
Answer: Agonist Long- acting
